Here are results for 13 molecules from patent publication US10532995B2, “Substituted pyrazole compounds as serine protease inhibitors” (VERSEON CORPORATION, priority 2015, dated 2020).

For orientation: IC50 means the concentration that gives 50% inhibition. A low value points to greater potency in that assay.

The target in the test is T1, Human thrombin (Homo sapiens, UniProt P00734).
T1 construct: purchased Haematologic Technologies Inc
The experiment in a line: Thrombin protease activity inhibition, chromogenic substrate S-2238. The note with it: 3 nM thrombin, 125 μM S-2238, 10 min pre-incubation, RT. The test is classed as biochemical. On the procedure:
The thrombin activity reported herein (e.g., Table A) was obtained as follows. […] Thrombin was assayed in buffer containing 0.05 M Tris (pH 7.4), 0.015 M NaCl and 0.01% PEG-8000. The final concentration of enzyme used was 3 nM thrombin. […] All assays were performed in 96-well microtiter plates at room temperature (RT). […] Inhibitor IC50 values were determined by adding test compound as ten point, three-fold serial dilutions in buffer solution, as known in the art. The plate was read at 10 minutes after substrate addition. The IC50 was calculated by plotting the percent (%) inhibition against compound concentration and fitting the data to a constrained four parameter sigmoidal curve, as known in the art.

`C=CCOC(=O)N1CCC(c2cc(NCc3ccc(Cl)s3)n(C(=O)C(C)(C)C)n2)C1` (stereo not shown) [Entry 256, prop-2-en-1-yl 3-(5-[(5-chlorothiophen-2-yl)methyl]amino-1-(2,2-dimethylpropanoyl)-1H-pyrazol-3-yl)pyrrolidine-1-carboxylate] had an IC50 of less than 100 nM.
Turning to `C=CCOC(=O)N1CC(c2cc(NCc3ccc(Cl)s3)[nH]n2)C1` [Entry 258, prop-2-en-1-yl 3-(5-[(5-chlorothiophen-2-yl)methyl]amino-1H-pyrazol-3-yl)azetidine-1-carboxylate], the IC50 is 10000 to 100000 nM.
`C=CCOC(=O)N1CCN(C(=O)CN2CCOCC2)CC1c1cc(NCc2ccc(Cl)s2)n(C(=O)C(C)(C)C)n1` (stereo not shown) [Entry 245, prop-2-en-1-yl 2-(5-[(5-chlorothiophen-2-yl)methyl]amino-1-(2,2-dimethylpropanoyl)-1H-pyrazol-3-yl)-4-[2-(morpholin-4-yl)acetyl]piperazine-1-carboxylate] showed a 50% inhibitory concentration (IC50) of 1000 to 10000 nM.
In turn, `COc1ccccc1C(=O)n1nc(C2CCN(C(=O)OC(C)(C)C)CC2)cc1NCc1ccc(Cl)s1` [Entry 295, tert-butyl 4-(5-[(5-chlorothiophen-2-yl)methyl]amino-1-(2-methoxybenzoyl)-1H-pyrazol-3-yl)piperidine-1-carboxylate] yielded a half-maximal inhibitory concentration (IC50) of less than 100 nM.
Turning to `Clc1ccc(CNc2cc(C3CCN(Cc4c[nH]cn4)CC3)n[nH]2)s1` [Entry 197, N-[(5-chlorothiophen-2-yl)methyl]-3-[1-(1H-imidazol-4-ylmethyl)piperidin-4-yl]-1H-pyrazol-5-amine], the 50% inhibitory concentration (IC50) was in the range of 1000 to 10000 nM.
`Clc1ccc(CNc2cc(C3CCN(CCN4CCOCC4)CC3)n[nH]2)s1` [Entry 223, N-[(5-chlorothiophen-2-yl)methyl]-3-1-[2-(morpholin-4-yl)ethyl]piperidin-4-yl-1H-pyrazol-5-amine] had an IC50 of 1000 to 10000 nM.
With `COc1ccccc1C(=O)n1nc(C2CCCO2)cc1NCc1ccc(Cl)s1` (stereo not shown) [Entry 156, N-[(5-chlorothiophen-2-yl)methyl]-1-(2-methoxybenzoyl)-3-(oxolan-2-yl)-1H-pyrazol-5-amine], the IC50 is less than 100 nM.
In turn, `O=S(=O)(c1ccccc1)N1CCC(c2cc(NCc3ccc(Cl)s3)[nH]n2)CC1` [Entry 130, 3-[1-(benzenesulfonyl)piperidin-4-yl]-N-[(5-chlorothiophen-2-yl)methyl]-1H-pyrazol-5-amine] registered an IC50 of 1000 to 10000 nM.
`COc1ccccc1C(=O)n1nc(C2CCCN2C(=O)C(C)C)cc1NCc1ccc(Cl)s1` (stereo not shown) [Entry 91, 1-[2-(5-[(5-chlorothiophen-2-yl)methyl]amino-1-(2-methoxybenzoyl)-1H-pyrazol-3-yl)pyrrolidin-1-yl]-2-methylpropan-1-one] had an IC50 of 100 to 1000 nM.
Molecule `O=C(c1ccsc1)n1nc(C2CNC2)cc1NCc1ccc(Cl)s1` [Entry 129, 3-(azetidin-3-yl)-N-[(5-chlorothiophen-2-yl)methyl]-1-(thiophene-3-carbonyl)-1H-pyrazol-5-amine; trifluoroacetic acid] yielded an IC50 of 1000 to 10000 nM.
With `CS(=O)(=O)N1CCCC(c2cc(NCc3ccc(Cl)s3)[nH]n2)CC1` (stereo not shown) [Entry 171, N-[(5-chlorothiophen-2-yl)methyl]-3-(1-methanesulfonylazepan-4-yl)-1H-pyrazol-5-amine] the figure was greater than 100000 nM; with `CC(C)(C)OC(=O)N1CCCC1(C)c1cc(NCc2ccc(Cl)s2)n(C(=O)C2(C)CCOCC2)n1` (stereo not shown) [Entry 275, tert-butyl 2-(5-[(5-chlorothiophen-2-yl)methyl]amino-1-(4-methyloxane-4-carbonyl)-1H-pyrazol-3-yl)-2-methylpyrrolidine-1-carboxylate], 1000 to 10000 nM.
Turning to `CC(C)(C)C(=O)n1nc(C2CCN(Cc3ccccc3)CC2)cc1NCc1ccc(Cl)s1` [Entry 95, 1-[3-(1-benzylpiperidin-4-yl)-5-[(5-chlorothiophen-2-yl)methyl]amino-1H-pyrazol-1-yl]-2,2-dimethylpropan-1-one], the IC50 is less than 100 nM.
